Drawing on patent US9469615B2, “Quinoxalines and AZA-quinoxalines as CRTH2 receptor modulators” (Merck Sharp & Dohme Corp., priority 2010, dated 2016), this text covers Ki for 31 compounds.

One assay addresses T1, hCRTH2 (Homo sapiens, UniProt Q9Y5Y4).
T1 construct: expressed in transfected cells; host or cells: HEK (human embryonic kidney) cells expressing hCRTH2; membrane preparation
T1 sequence (Q9Y5Y4 1-395): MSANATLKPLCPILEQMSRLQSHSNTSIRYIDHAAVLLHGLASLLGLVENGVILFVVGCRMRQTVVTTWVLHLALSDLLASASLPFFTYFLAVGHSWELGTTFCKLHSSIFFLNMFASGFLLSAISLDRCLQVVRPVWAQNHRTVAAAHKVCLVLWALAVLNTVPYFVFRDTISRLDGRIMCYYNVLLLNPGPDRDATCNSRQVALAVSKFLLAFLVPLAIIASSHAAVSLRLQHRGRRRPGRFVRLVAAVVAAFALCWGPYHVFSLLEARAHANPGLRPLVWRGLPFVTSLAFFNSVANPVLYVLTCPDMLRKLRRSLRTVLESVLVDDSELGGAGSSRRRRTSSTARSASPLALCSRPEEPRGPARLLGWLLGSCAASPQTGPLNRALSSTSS
In words: Radioligand binding assay ([3H]PGD2 competition, HEK-hCRTH2 membranes). As to conditions: [3H]PGD2 binding, values in text. In a few lines: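 HEK-hCRTH2 membranes, 8-20 μg; [3H]PGD2 3.0 nM; 50 mM Tris-HCl pH 7.4/1 mM EDTA/2 mM MnCl2; DMSO 1%; 60 min RT; NSB 10 μM PGD2; filtration, scintillation counting.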
Compound `C[C@@H](CCc1nc2cc(C(=O)N[C@H](C)c3ccc(F)cc3)ccc2nc1-c1ccc(F)cc1)CC(=O)O` [compound 438, (S)-5-(3-(4-fluorophenyl)-7-(((R)-1-(4-fluorophenyl)ethyl)carbamoyl)quinoxalin-2-yl)-3-methylpentanoic acid] returned a Ki of 4.2 nM.

The assay is the same for the next values; noted with them: [3H]PGD2 competition, Table B.
Compound `C[C@@H](NC(=O)c1ccc2nc(-c3ccc(Cl)cc3)c(CCC(=O)O)nc2c1)c1ccc(F)cc1` [compound 418, (R)-3-(3-(4-chlorophenyl)-7-((1-(4-fluorophenyl)ethyl)carbamoyl)quinoxalin-2-yl) propanoic acid] yielded a Ki of 20.1 to 200 nM.
On to `O=C(O)CCCCc1nc2cc(C(=O)N3CC(c4cccc(F)c4)C3)ccc2nc1-c1ccc(Cl)cc1` [compound 419, 5-(3-(4-chlorophenyl)-7-(3-(3-fluorophenyl)azetidine-1-carbonyl)quinoxalin-2-yl)pentanoic acid], for which the Ki fell in the range of 0.1 to 2 nM.
Compound `O=C(O)CCCCc1nc2cc(C(=O)N3CC(c4ccc(F)c(F)c4)C3)ccc2nc1-c1ccc(Cl)cc1` [compound 420, 5-(3-(4-chlorophenyl)-7-(3-(3,4-difluorophenyl)azetidine-1-carbonyl)quinoxalin-2-yl)pentanoic acid] yielded a Ki of 0.1 to 2 nM.
As for `N#Cc1ccc(C2CN(C(=O)c3ccc4nc(-c5ccc(Cl)cc5)c(CCCCC(=O)O)nc4c3)C2)cc1` [compound 421, 5-(3-(4-chlorophenyl)-7-(3-(4-cyanophenyl)azetidine-l-carbonyl)quinoxalin-2-yl)pentanoic acid], the Ki was 0.1 to 2 nM.
Turning to `C[C@@H](NC(=O)c1ccc2nc(-c3ccccc3)c(CC3CC(C(=O)O)C3)nc2c1)c1ccc(F)cc1` (stereo partly drawn) [compound 422, (R)-3-((7-((1-(4-fluorophenyl)ethyl)carbamoyl)-3-phenylquinoxalin-2-yl)methyl)cyclobutanecarboxyl acid], the Ki lay within 2.1 to 20 nM.
`CC(CCCc1nc2cc(C(=O)N3CCN(c4ccccc4)CC3)ccc2nc1-c1ccc(C(F)(F)F)cc1)C(=O)O` (centres unmarked) [compound 423, 2-methyl-5-(7-(4-phenylpperazine-1-carbonyl)-3-(4-(trifluoromethyl)phenyl)quinoxalin-2-yl) pentanoic acid] displayed a Ki of 2.1 to 20 nM.
Turning to `O=C(O)CCCCc1nc2cc(C(=O)N3CC(c4cccc(Cl)c4)C3)ccc2nc1-c1ccc(Cl)cc1` [compound 425, 5-(3-(4-chlorophenyl)-7-(3-(3-chlorophenyl)azetidine-1-carbonyl)quinoxalin-2-yl)pentanoic acid], the Ki was in the range of 0.1 to 2 nM.
`O=C(O)CCCCc1nc2cc(C(=O)N3CC(c4ccc(Cl)cc4)C3)ccc2nc1-c1ccc(Cl)cc1` [compound 426, 5-(3-(4-chlorophenyl)-7-(3-(4-chlorophenyl)azetidine-1-carbonyl)quinoxalin-2-yl)pentanoic acid] had a Ki of 0.1 to 2 nM.
The compound `CC(CCCc1nc2cc(C(=O)N[C@H](C)c3ccc(Cl)cc3)ccc2nc1-c1ccc(F)cc1)C(=O)O` (stereo partly drawn) [compound 427, 5-(7-(((R)-1-(4-chlorophenyl)ethyl)carbamoyl)-3-(4-fluorophenyl)quinoxalin-2-yl)-2-methylpentanoic acid] registered a Ki of 2.1 to 20 nM.
`CC(CCCc1nc2cc(C(=O)N[C@@H](C)c3ccc(Cl)cc3)ccc2nc1-c1ccc(F)cc1)C(=O)O` (stereo partly drawn) [compound 428, 5-(7-(((S)-1-(4-chlorophenyl)ethyl)carbamoyl)-3-3-(4-fluorophenyl)quinoxalin-2-yl)-2-methylpentanoic acid] displayed a Ki of 20.1 to 200 nM.
In the case of `CC(CCc1nc2cc(C(=O)N[C@H](C)c3ccc(F)cc3)ccc2nc1-c1ccc(Cl)cc1)CC(=O)O` (stereo partly drawn) [compound 429, 5-(3-(4-chlorophenyl)-7-(((R)-1-(4-fluorophenyl)ethyl)carbamoyl)quinoxalin-2-yl)-3-methylpentanoic acid], the Ki is 0.1 to 2 nM.
For the compound `CC(CCc1nc2cc(C(=O)N[C@@H](C)c3ccc(F)cc3)ccc2nc1-c1ccc(F)cc1)CC(=O)O` (stereo partly drawn) [compound 430, 5-(3-(4-fluorophenyl)-7-(((S)-1-(4-fluorophenyl)ethyl)carbamoyl)quinoxalin-2-yl)-3-methylpentanoic acid], the Ki lay in the range of 2.1 to 20 nM.
Compound `CC(CCc1nc2cc(C(=O)N[C@@H]3CCCc4ccccc43)ccc2nc1-c1ccc(F)cc1)CC(=O)O` (stereo partly drawn) [compound 431, 5-(3-(4-fluorophenyl)-7-(((R)-1,2,3,4-tetrahydronaphthalen-1-yl)carbamoyl)quinoxalin-2-yl)-3-methylpentanoic acid] yielded a Ki of 2.1 to 20 nM.
The compound `CC(CCc1nc2cc(C(=O)N[C@H](C)c3ccc(F)cc3)ccc2nc1-c1ccc(F)cc1)CC(=O)O` (stereo partly drawn) [compound 432, 5-(3-(4-fluorophenyl)-7-(((R)-1-(4-fluorophenyl)ethyl)carbamoyl)quinoxalin-2-yl)-3-methylpentanoic acid] returned a Ki of 0.1 to 2 nM.
Take `CC(CCc1nc2cc(C(=O)N[C@H]3CCCc4ccccc43)ccc2nc1-c1ccc(F)cc1)CC(=O)O` (stereo partly drawn) [compound 433, 5-(3-(4-fluorophenyl)-7-(((S)-1,2,3,4-tetrahydronaphthalen-1-yl)carbamoyl)quinoxalin-2-yl)-3-methylpentanoic acid]: the Ki was in the range of 2.1 to 20 nM.
The compound `C[C@@H](NC(=O)c1ccc2nc(-c3ccc(Cl)cc3)c(CCCCC(=O)O)nc2c1)c1ccc(F)cn1` [compound 434, (R)-5-(3-(4-chlorophenyl)-7-((1-(5-fluoropyridin-2-yl)ethyl)carbamoyl)quinoxalin-2-yl)pentanoic acid] gave a Ki of 0.1 to 2 nM.
`C[C@H](NC(=O)c1ccc2nc(-c3ccc(Cl)cc3)c(CCCCC(=O)O)nc2c1)c1ccc(F)cn1` [compound 435, (S)-5-(3-(4-chlorophenyl)-7-((1-(5-fluoropyridin-2-yl)ethyl)carbamoyl)quinoxalin-2-yl)pentanoic acid] came in with a Ki of 0.1 to 2 nM.
`O=C(O)CCCCc1nc2cc(C(=O)N3CCn4c(nnc4C(F)(F)F)C3)ccc2nc1-c1ccc(Cl)cc1` [compound 436, 5-(3-(4-chlorophenyl)-7-(3-(trifluoromethyl)-5,6,7,8-tetrahydro-[1,2,4]triazolo[4,3-a]pyrazine-7-carbonyl)quinoxalin-2-yl)pentanoic acid] registered a Ki of 20.1 to 200 nM.
For the compound `C[C@H](CCc1nc2cc(C(=O)N[C@H](C)c3ccc(F)cc3)ccc2nc1-c1ccc(F)cc1)CC(=O)O` [compound 437, (R)-5-(3-(4-fluorophenyl)-7-(((R)-1-(4-fluorophenyl)ethyl)carbamoyl)quinoxalin-2-yl)-3-methylpentanoic acid], the inhibition constant Ki fell in the range of 20.1 to 200 nM.
Take `C[C@@H](CCc1nc2cc(C(=O)N[C@H](C)c3ccc(F)cc3)ccc2nc1-c1ccc(F)cc1)CC(=O)O` [compound 438, (S)-5-(3-(4-fluorophenyl)-7-(((R)-1-(4-fluorophenyl)ethyl)carbamoyl)quinoxalin-2-yl)-3-methylpentanoic acid]: the Ki is 2.1 to 20 nM.
On to `C[C@H](CCc1nc2cc(C(=O)N[C@@H]3CCCc4ccccc43)ccc2nc1-c1ccc(F)cc1)CC(=O)O` [compound 439, (R)-5-(3-(4-fluorophenyl)-7-(((R)-1,2,3,4-tetrahydronaphthalen-1-yl)carbamoyl)quinoxalin-2-yl)-3-methylpentanoic acid], for which the Ki was in the range of 2.1 to 20 nM.
For `C[C@@H](CCc1nc2cc(C(=O)N[C@@H]3CCCc4ccccc43)ccc2nc1-c1ccc(F)cc1)CC(=O)O` [compound 440, (S)-5-(3-(4-fluorophenyl)-7-(((R)-1,2,3,4-tetrahydronaphthalen-1-yl)carbamoyl)quinoxalin-2-yl)-3-methylpentanoic acid], the Ki fell in the range of 0.1 to 2 nM.
On the same count and under the same terms, the same measure for `C[C@H](CCc1nc2cc(C(=O)N[C@H](C)c3ccc(F)cc3)ccc2nc1-c1ccc(Cl)cc1)CC(=O)O` [compound 441, (R)-5-(3-(4-chlorophenyl)-7-(((R)-1-(4-fluorophenyl)ethyl)carbamoyl)quinoxalin-2-yl)-3-methylpentanoic acid]: 2.1 to 20 nM; for `C[C@@H](CCc1nc2cc(C(=O)N[C@H](C)c3ccc(F)cc3)ccc2nc1-c1ccc(Cl)cc1)CC(=O)O` [compound 442]: 0.1 to 2 nM.
Compound `O=C(NCc1ccccc1)c1ccc2nc(-c3ccc(F)cc3)c(CCCC(F)(F)C(=O)O)nc2c1` [compound 443, 5-(7-(benzylcarbamoyl)-3-(4-fluorophenyl)quinoxalin-2-yl)-2,2-difluoropentanoic acid] yielded a Ki of 2.1 to 20 nM.
Compound `Cc1ccc(CNC(=O)c2ccc3nc(-c4ccccc4)c(CCCC(F)(F)C(=O)O)nc3c2)cc1` [compound 444] registered a Ki of 20.1 to 200 nM.
Consider `O=C(O)Cc1cc(F)cc(CCc2nc3cc(C(=O)N4CCN(c5ccccc5)CC4)ccc3nc2-c2ccc(Cl)cc2)c1` [compound 445], for which the Ki was 2.1 to 20 nM.
`O=C(O)Cc1cc(F)cc(CCc2nc3cc(C(=O)NCc4ccc(Cl)cc4)ccc3nc2-c2ccc(Cl)cc2)c1` [compound 446] had a Ki of 2.1 to 20 nM.
Consider `CN(Cc1ccc(F)cc1)C(=O)c1ccc2nc(-c3ccc(Cl)cc3)c(CCc3cc(F)cc(CC(=O)O)c3)nc2c1` [compound 447, 2-(3-(2-(3-(4-chlorophenyl)-7-((4-fluorobenzyl)(methyl)carbamoyl)quinoxalin-2-yl)ethyl)-5-fluorophenyl)acetic acid], for which the Ki lay in the range of 0.1 to 2 nM.
Same read-out and setting: the same measure for `CN(Cc1ccccc1)C(=O)c1ccc2nc(-c3ccc(Cl)cc3)c(CCc3cc(F)cc(CC(=O)O)c3)nc2c1` [compound 448, 2-(3-(2-(7-(benzyl(methyl)carbamoyl)-3-(4-chlorophenyl)quinoxalin-2-yl)ethyl)-5-fluorophenyl) acetic acid]: 0.1 to 2 nM; for `C[C@@H](NC(=O)c1ccc2nc(-c3ccc(Cl)cc3)c(CCc3cc(F)cc(CC(=O)O)c3)nc2c1)c1ccc(F)cc1` [compound 449]: 2.1 to 20 nM.

In general, Ki refers to a dissociation constant, usually derived from enzyme kinetics or from competition with a known ligand. Higher therefore signals a looser hold on the target.
